Columns and labels:
[1] = system: GN48 Klebsiella pneumoniae NCTC 13443 NDM-1-β-lactamase producing isolate; test: Chequerboard synergy with polymyxin B, FICI (Example 6); assay type: cell-based
Description: (§1) A chequerboard technique was used to identify possible synergistic or antagonistic interactions between the 4-oxoquinolizines compounds, levofloxacin and polymyxin B. Levofloxacin was included as a control. […] Final dilutions were made in Mueller-Hinton broth, the specific test medium used for MIC determinations according to CLSI guidelines (CLSI. Methods for Dilution Antimicrobial Susceptibility Tests for Bacteria That Grow Aerobically; Approved Standard-Eighth Edition (2009). CLSI Document M07-A8. CLSI, Wayne, Pa. 19087-1898, USA.). The test medium used was a cation-adjusted Mueller-Hinton Broth II (Becton Dickinson UK Ltd., Oxford Science Park, Oxford, UK, OX4 4DQ).
(§2) The compounds 2, 33 and 35, as well as levofloxacin were tested in combination with polymyxin B on the following isolates: GN31 Acinetobacter baumannii—antibiotic susceptible clinical isolate, GN52 Acinetobacter baumannii—levofloxacin resistant clinical isolate, GN56 Acinetobacter baumannii—levofloxacin resistant clinical isolate, GN48 Klebsiella pneumoniae—NCTC 13443—NDM-1-metallo-β-lactamase and GN10 Pseudomonas aeruginosa—ATCC 27853—antibiotic susceptible reference isolate. All isolates are from the collection maintained at Quotient Bioresearch Ltd., Cambridge, UK.
(§3) The MIC values for the compounds and polymyxin B and levofloxacin were determined by broth microdilution following CLSI guidelines, and the MICs of agents in combination were determined as described by Pillai et. al (Pillai S K, Moellering R C Jr, Eliopoulis G M; Antimicrobial Combinations in Antibiotics in Laboratory Medicine 5th Edition (V. Lorian Ed) (2005) p 365-440). Initial MIC results were used to determine the microtiter plate patterns for the chequerboards. A suitable doubling dilution concentration range was selected such that the combination antibiotic range was at least two concentrations above and four concentrations below the MIC for each isolate. A fixed range of 0.008 to 8 mg/L was tested for polymyxin B except in the case of A. baumannii GN31 where a range of 0.004 to 4 mg/L was tested when in combination with the compounds 2, 33 and 35 as well as levofloxacin.
(§4) From the raw data, fractional inhibitory concentration indices (FICI) were determined for the compounds of the invention and levofloxacin together with polymyxin B for each isolate as follows:
(§5) FICX=concentration of the combination antibiotic in a particular row MIC of the combination drug alone
(§6) FICY=MIC of polymyxin B in combination[…]MIC of the polymyxin B alone
(§7) Additionally isobolograms were created to represent the same data visually. Here, the MIC of polymyxin B was plotted against every concentration of the combination antibiotic up to the MIC.

[2] = system: GN31 Acinetobacter baumannii antibiotic susceptible isolate; test: as above; assay type: cell-based
Description: as §1, §2, §3, §4, §5, §6, §7

[3] = system: GN52 Acinetobacter baumannii levofloxacin resistant clinical isolate; test: as above; assay type: cell-based
Description: as §1, §2, §3, §4, §5, §6, §7

[4] = system: GN56 Acinetobacter baumannii levofloxacin resistant clinical isolate; test: as above; assay type: cell-based
Description: as §1, §2, §3, §4, §5, §6, §7

[5] = system: S. aureus ATCC 43300 (MRSA, FQ-S); test: MIC, selected panel of bacterial strains (Example 5); assay type: cell-based, Staphylococcus aureus; details: Staphylococcus aureus, read-out: MICs against Gram positive bacteria S. aureus ATCC 43300 (MRSA, FQ-S)
[6] = in combination with polymyxin B
[7] = polymyxin B with the named antibiotic

`Cc1c(-c2ccc3[nH]ncc3c2)ccn2c(=O)c(C(=O)O)cc(C3CC3)c12` [Compound 35, 8-(1H-indazol-5-yl)-1-cyclopropyl-9-methyl-4-oxo-quinolizine-3-carboxylic acid] gave an FICx [1] of 0.06, an FICy [1] of 0.50 and an FICI ([1]; combination with polymyxin B) of 0.56. The Synergy ([1]; combination with polymyxin B) was “Partial synergy (partial synergy/addition (FICI 0.51 to 0.75))”, the Synergy ([1]; combination with polymyxin B, listed as compound 35) was “partial synergy” and the “Combination drug concentration in combination” value (shortened to “Combination drug concentration”) [1, 6] was 1 mg/L. The “Polymyxin B MIC in combination” value [1, 7] was 0.25 mg/L, the “Combination drug MIC alone” value [2] was 0.03 mg/L and the FICx [2] was 0.13. For the same molecule, the FICy [2] was 0.48, the FICI ([2]; combination with polymyxin B) was 0.61 and the Synergy ([2]; combination with polymyxin B) was “Partial synergy (partial synergy/addition (FICI 0.51 to 0.75))”. For the same molecule, the “Combination drug concentration” value [2, 6] was 0.004 mg/L, the “Polymyxin B MIC in combination” value [2, 7] was 0.12 mg/L and the “Combination drug MIC alone” value [3] was 2 mg/L. It also gave an FICx [3] of 0.25, an FICy [3] of 0.24 and an FICI ([3]; combination with polymyxin B) of 0.49. The Synergy ([3]; combination with polymyxin B) was “Synergy (Synergy (FICI <0.5))”, the “Combination drug concentration” value [3, 6] was 0.5 mg/L and the “Polymyxin B MIC in combination” value [3, 7] was 0.12 mg/L. For the same molecule, the “Combination drug MIC alone” value [4] was 8 mg/L, the FICx [4] was 0.06 and the FICy [4] was 0.50. For the same molecule, the FICI ([4]; combination with polymyxin B) was 0.56, the Synergy ([4]; combination with polymyxin B) was “Partial synergy (partial synergy/addition (FICI 0.51 to 0.75))” and the “Combination drug concentration” value [4, 6] was 0.5 mg/L. For the same molecule, the “Polymyxin B MIC in combination” value [4, 7] was 0.25 mg/L.
With `Cc1c(-c2ccc(N)nc2)c(F)cn2c(=O)c(C(=O)[O-])cc(C3CC3)c12.[K+]` [Compound 60K salt, potassium 8-(6-aminopyridin-3-yl)-1-cyclopropyl-7-fluoro-9-methyl-4-oxo-4H-quinolizine-3-carboxylate] the MIC [5] was < 0.004 µg/mL.
In the case of `Cc1c(C2=CCNCC2)c(F)cn2c(=O)c(C(=O)[O-])cc(C3CC3)c12.[K+]` [Compound 62K salt, potassium 8-(1,2,3,6-tetrahydropyridin-4-yl)-1-cyclopropyl-7-fluoro-9-methyl-4-oxo-4H-quinolizine-3-carboxylate], the MIC [5] is reported as 0.125 µg/mL.

— patent US20190105367A1, “ANTIMICROBIAL 4-OXOQUINOLIZINES” (Emergent Product Development Gaithersburg Inc., priority 2011, published 2019)
